Test results published in PubChem BioAssay (NCI).
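Interpolation was linear, between the two tested concentrations surrounding the appropriate level; five concentrations were tested over 48 hours in 96-well plates. TGI denotes the concentration required for complete inhibition of growth.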

Experiments:
Assay in all cases: DTP human tumour cell line panel, 48 h
HCT-15 colon = test system: HCT-15 colon
A498 renal = test system: A498 renal
OVCAR-4 ovarian = test system: OVCAR-4 ovarian
NCI/ADR-RES ovarian = test system: NCI/ADR-RES ovarian
KM20L2 colon = test system: KM20L2 colon
XF 498 CNS = test system: XF 498 CNS
DLD-1 colon = test system: DLD-1 colon
M19-MEL melanoma = test system: M19-MEL melanoma
DMS 273 small cell lung = test system: DMS 273 small cell lung
SNB-78 CNS = test system: SNB-78 CNS
LXFL 529 NSCLC = test system: LXFL 529 NSCLC
DMS 114 small cell lung = test system: DMS 114 small cell lung

Structure (SMILES) | TGI (HCT-15 colon) [µM] | TGI (A498 renal) [µM] | TGI (OVCAR-4 ovarian) [µM] | TGI (NCI/ADR-RES ovarian) [µM] | further results
CC(=O)NNc1nc(C)c(C(/C=C/c2ccc([N+](=O)[O-])cc2)=N/N)s1 | > 100 | > 100 | > 100 | > 100 | –
N/C(=N\S(=O)(=O)c1cccc2nsnc12)Nc1ccc(Cl)cc1 | > 100 | 59.5 | > 100 | > 100 | –
O=C(NCCCCN(CCCNC(=O)C(F)(F)F)Cc1ccc2ccccc2c1)C(F)(F)F | 31.1 | 62.2 | 37.8 | 32.7 | –
Cc1ccc(N=NC2S/C(=C(\C#N)c3nc4ccccc4[nH]3)N(c3ccccc3)C2=O)cc1 (configuration not stated) | > 100 | > 100 | > 100 | – | TGI (KM20L2 colon): > 100 µM; TGI (XF 498 CNS): > 100 µM; TGI (DLD-1 colon): > 100 µM; TGI (M19-MEL melanoma): > 100 µM; TGI (DMS 273 small cell lung): > 100 µM; TGI (SNB-78 CNS): > 100 µM; TGI (LXFL 529 NSCLC): > 100 µM; TGI (DMS 114 small cell lung): > 100 µM
N#CC1Cc2cc3c(cc21)OCO3 (configuration not stated) | > 100 | > 100 | > 100 | > 100 | –
CC(C)c1nc2cc(C(F)(F)F)ccc2[nH]c1=O | > 100 | > 100 | > 100 | > 100 | –
C=[N+](CNC(=O)CNC(=O)C(Cc1ccc([N+](=O)[O-])cc1)NC(=O)OC(C)(C)C)C(=O)CNC(=O)C(Cc1ccc([N+](=O)[O-])cc1)NC(=O)OC(C)(C)C (configuration not stated) | > 100 | > 100 | > 100 | > 100 | –
S=C1Cc2c(-c3ccc(Cl)cc3)cc(-c3ccccc3)nc2-c2ccccc2N1 | > 100 | 33 | 18 | 48.6 | –
CC(=O)c1c(SCCN2CCCC2)n(-c2ccccc2)c(=S)n(-c2ccccc2)c1=O | 27.5 | 27.7 | > 90.7 | > 85.2 | –
O=S(=O)(O)CCCC1S(=O)(=O)OCCOS1(=O)=O | > 100 | > 100 | > 100 | > 100 | –
O=C1NC(=O)C(CC(C(=O)C(=O)Nc2ccccc2Cl)C(=O)c2ccc3ccccc3c2)C(=O)N1 (configuration not stated) | > 100 | – | > 100 | > 100 | –
c1ccc2c(c1)Nc1ccccc1[P+]21c2ccccc2Nc2ccccc21 | 24.5 | 2.93 | > 32.5 | > 100 | –
CCCN1CC=C(c2cc(C(=O)OCC)[nH]c2-c2cc(C)no2)C1=O | > 100 | > 100 | > 100 | > 100 | –
C/C(=C\c1ccccc1)C(=O)NCc1ccc(C(=O)NCCC(C)C)cc1 | > 100 | > 100 | > 100 | > 100 | –
COC(=O)C1CCOC(C)N1C(=O)OC(C)(C)C (configuration not stated) | > 100 | – | > 100 | > 100 | –
Cc1cc(NS(=O)(=O)c2ccc(NC(=O)c3ccc4[nH]c5ccccc5c(=O)c4c3)cc2)no1 | > 100 | – | > 100 | > 100 | –
O=C1CCCC2C(O)CCC[C@H]12 (some centres not stated) | > 100 | – | > 100 | > 100 | –
CC(C)C[C@H](NC(=O)[C@H](Cc1ccccc1)NC(=O)CCc1ccccc1)B(O)O | < 0.01 | < 0.01 | < 0.01 | 1.82 | –

Structure (SMILES) | TGI (HCT-15 colon) [µM] | TGI (A498 renal) [µM] | TGI (OVCAR-4 ovarian) [µM] | TGI (NCI/ADR-RES ovarian) [µM] | further results
COP(=O)(Cc1ccc(/C=C/C#N)o1)OC | > 100 | > 100 | > 100 | > 100 | –
CCOC(=O)C1C(c2ccc(OC)cc2)c2c([nH]n(-c3ccccc3)c2=O)CC1(O)OCC (configuration not stated) | > 100 | > 100 | > 100 | > 100 | –
Cc1ccc(O)c(C(c2ccc([N+](=O)[O-])cc2)c2cc(C)ccc2O)c1 | 23.8 | 43 | 23.8 | 28.7 | –
O=[N+]([O-])c1ccc2[nH]nc(OCc3ccccn3)c2c1 | > 100 | > 100 | > 100 | > 100 | –
O=c1[nH]c2ccc(Cl)cc2c2oc(-c3ccccc3)nc12 | > 100 | 43.4 | 35.4 | 86.6 | –
Nc1ccc(-c2cssc2=S)cc1 | > 100 | – | > 100 | > 100 | –
O=C1Cc2c([nH]c3c(Cl)cccc23)-c2ccccc2N1 | > 100 | > 100 | > 100 | – | –
Cn1c(-c2cccs2)cc(-c2ccccc2)c1-c1cccs1 | > 100 | > 100 | > 100 | > 100 | –
CC1=NOC2(C1)C(=O)Nc1ccccc12 (configuration not stated) | > 100 | 96.4 | > 100 | > 100 | –
C=CCOC(=O)Cn1cc(C)c(=O)[nH]c1=O | > 100 | > 100 | > 100 | > 100 | –
O=C(Nc1nc(C23CC4CC(CC(C4)C2)C3)cs1)c1c(O)c2ccccc2[nH]c1=O | > 100 | > 100 | > 100 | > 100 | –
CCOC(O)(NC(=O)C(C(F)(F)F)C(F)(F)F)C(F)(F)F (configuration not stated) | > 100 | > 100 | – | > 100 | –
COC(=O)C1=C(C(=O)OC)C(Cc2ccccc2)(OO)OC1=O (configuration not stated) | 16 | – | 52.3 | > 100 | –
CN(C)Cc1cc(N=Nc2cccc(Cl)c2)ccc1O | 20.5 | 23.8 | 34.7 | 22.4 | –
C=C1[C@H](OC(=O)C(C)C)[C@]23CC4(O)[C@@H]5[C@@]6(C)CCC[C@]57C([C@@H]2C[C@@]1(O)[C@H](O)[C@@H]73)N4C6 | > 100 | > 100 | > 100 | > 100 | –
Cn1c(N)c(C(N)=O)[nH]c1=S | > 100 | > 100 | > 100 | > 100 | –
N#CC(c1nc2ccccc2s1)c1ncnc(Cl)c1[N+](=O)[O-] (configuration not stated) | 35.8 | > 100 | > 100 | 44.3 | –
Nc1ccc2nc(NCc3ccc(F)cc3)cnc2c1 | > 100 | – | > 100 | – | TGI (KM20L2 colon): > 100 µM; TGI (XF 498 CNS): > 100 µM; TGI (DMS 273 small cell lung): > 100 µM; TGI (SNB-78 CNS): > 100 µM; TGI (LXFL 529 NSCLC): > 100 µM; TGI (DMS 114 small cell lung): > 100 µM
